Legend:
Format in all cases: in vivo
Poa annua = assay: greenhouse post-emergence treatment, POAAN; settings: Poa annua, 480 h, POAAN, 20 DAT
Method in brief: (§1)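 Plants in loamy sand (~3.0% humus) were sprayed post-emergence at 3–15 cm height with actives in a water spray liquor made from 10% by weight emulsion concentrates. Plants were kept at 10-25° C. or 20-35° C. by species and rated over 2–4 weeks on a 0–100 scale (100 = complete destruction). Colby's E = X+Y−(X·Y/100) gave the expected additive effect.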

Ambrosia elatior = assay: greenhouse post-emergence treatment, AMBEL; settings: AMBEL, 20 DAT
Method in brief: as §1

Polygonum convolvulus = assay: greenhouse post-emergence treatment, POLCO; settings: Fallopia convolvulus, 480 h, 20 DAT, POLCO
Method in brief: (§2)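 Scale 0–100 damage rating (100 = complete destruction of above-ground parts, 0 = normal growth), read 2 to 4 weeks after post-emergence application of aqueous spray liquor to plants 3–15 cm tall.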

Bromus sterilis = assay: greenhouse post-emergence treatment, BROST; settings: Bromus sterilis, 480 h, BROST, 20 DAT
Method in brief: (§3)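 Pot trial in loamy sand with about 3.0% humus; plants sown in place or transplanted as seedlings a few days before treatment, kept at 10-25° C or 20-35° C by species, water as solvent. Damage scored 0 (none) to 100 (full destruction) over 2 to 4 weeks; combination expectation by Colby, E=X+Y−(X·Y/100).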

Echinocloa crus-galli = assay: greenhouse post-emergence treatment, ECHCG; settings: Echinochloa crus-galli, 480 h, pyridate solo 225 gai/ha, 20 DAT, ECHCG
Method in brief: as §2

Lolium multiflorum = assay: greenhouse post-emergence treatment, LOLMU; settings: Lolium multiflorum, 480 h, LOLMU, 20 DAT
Method in brief: as §3

Matricaria chamomilla = assay: greenhouse post-emergence treatment, MATCH; settings: Matricaria chamomilla, 480 h, MATCH, 20 DAT
Method in brief: as §2

Avena fatua = assay: greenhouse post-emergence treatment, AVEFA; settings: Avena fatua, 480 h, AVEFA, 20 DAT
Method in brief: as §3

Brachiaria decumbens = assay: greenhouse post-emergence treatment, BRADC; settings: Urochloa decumbens, 480 h, BRADC, 20 DAT
Method in brief: as §1

Setaria viridis = assay: greenhouse post-emergence treatment, SETVI; settings: Setaria viridis, 480 h, SETVI, 20 DAT
Method in brief: as §3

Alopecurus myosuroides = assay: greenhouse post-emergence treatment, ALOMY; settings: Alopecurus myosuroides, 480 h, ALOMY, 20 DAT
Method in brief: as §3

[1] = solo pyridate (WP 45%) 112.5 gai/ha
[2] = solo pyridate (WP 45%) 225 gai/ha
[3] = solo pyridate (WP 45%) 450 gai/ha
[4] = solo pyridate (WP 45%) 900 gai/ha

Compound: CCCCCCCCSC(=O)Oc1cc(Cl)nnc1-c1ccccc1 [pyridate]
- pest or weed control at 112.5 g/ha (Poa annua; [1]): 0%
- pest or weed control at 225 g/ha (Poa annua; [2]): 0%
- pest or weed control at 450 g/ha (Poa annua; [3]): 0%
- % activity (Ambrosia elatior; [1]): 0%
- % activity (Ambrosia elatior; [2]): 10%
- inhibition at 112.5 g/ha (Ambrosia elatior; Ambrosia artemisiifolia, 480 h, pyridate solo 112.5 gai/ha): 0%
- inhibition at 225 g/ha (Ambrosia elatior; Ambrosia artemisiifolia, 480 h, pyridate solo 225 gai/ha): 10%
- inhibition at 450 g/ha (Ambrosia elatior; Ambrosia artemisiifolia, 480 h, pyridate solo 450 gai/ha): 85%
- inhibition at 112.5 g/ha (Polygonum convolvulus; pyridate solo 112.5 gai/ha): 40%
- inhibition at 225 g/ha (Polygonum convolvulus; pyridate solo 225 gai/ha): 50%
- pest or weed control at 112.5 g/ha (Bromus sterilis; [1]): 0%
- pest or weed control at 225 g/ha (Bromus sterilis; [2]): 0%
- pest or weed control at 900 g/ha (Bromus sterilis; [4]): 0%
- inhibition at 225 g/ha (Echinocloa crus-galli): 30%
- pest or weed control at 112.5 g/ha (Lolium multiflorum; [1]): 0%
- pest or weed control at 225 g/ha (Lolium multiflorum; [2]): 20%
- inhibition at 112.5 g/ha (Lolium multiflorum; pyridate solo 112.5 gai/ha): 0%
- inhibition at 225 g/ha (Lolium multiflorum; pyridate solo 225 gai/ha): 20%
- pest or weed control at 112.5 g/ha (Matricaria chamomilla; [1]): 0%
- pest or weed control at 225 g/ha (Matricaria chamomilla; [2]): 0%
- pest or weed control at 450 g/ha (Matricaria chamomilla; [3]): 40%
- inhibition at 112.5 g/ha (Matricaria chamomilla; pyridate solo 112.5 gai/ha): 0%
- inhibition at 225 g/ha (Matricaria chamomilla; pyridate solo 225 gai/ha): 0%
- inhibition at 450 g/ha (Matricaria chamomilla; pyridate solo 450 gai/ha): 40%
- pest or weed control at 112.5 g/ha (Avena fatua; [1]): 0%
- pest or weed control at 225 g/ha (Avena fatua; [2]): 0%
- pest or weed control at 450 g/ha (Avena fatua; [3]): 10%
- pest or weed control at 900 g/ha (Avena fatua; [4]): 30%
- inhibition at 112.5 g/ha (Avena fatua; pyridate solo 112.5 gai/ha): 0%
- inhibition at 225 g/ha (Avena fatua; pyridate solo 225 gai/ha): 0%
- inhibition at 450 g/ha (Avena fatua; pyridate solo 450 gai/ha): 10%
- pest or weed control at 112.5 g/ha (Brachiaria decumbens; [1]): 0%
- pest or weed control at 225 g/ha (Brachiaria decumbens; [2]): 20%
- pest or weed control at 450 g/ha (Brachiaria decumbens; [3]): 20%
- pest or weed control at 900 g/ha (Brachiaria decumbens; [4]): 50%
- inhibition at 112.5 g/ha (Brachiaria decumbens; pyridate solo 112.5 gai/ha): 0%
- inhibition at 225 g/ha (Brachiaria decumbens; pyridate solo 225 gai/ha): 20%
- inhibition at 450 g/ha (Brachiaria decumbens; pyridate solo 450 gai/ha): 20%
- inhibition at 900 g/ha (Brachiaria decumbens; pyridate solo 900 gai/ha): 50%
- pest or weed control at 112.5 g/ha (Setaria viridis; [1]): 15%
- pest or weed control at 225 g/ha (Setaria viridis; [2]): 25%
- pest or weed control at 450 g/ha (Setaria viridis; [3]): 65%
- inhibition at 225 g/ha (Setaria viridis; pyridate solo 225 gai/ha): 25%
- inhibition at 450 g/ha (Setaria viridis; pyridate solo 450 gai/ha): 65%
- inhibition at 900 g/ha (Setaria viridis; pyridate solo 900 gai/ha): 80%
- pest or weed control at 900 g/ha (Alopecurus myosuroides; [4]): 20%
- inhibition at 112.5 g/ha (Alopecurus myosuroides; pyridate solo 112.5 gai/ha): 0%
- inhibition at 225 g/ha (Alopecurus myosuroides; pyridate solo 225 gai/ha): 0%
- inhibition at 450 g/ha (Alopecurus myosuroides; pyridate solo 450 gai/ha): 0%
- inhibition at 900 g/ha (Alopecurus myosuroides; pyridate solo 900 gai/ha): 20%
